Laboratory results as given in PubChem BioAssay (NCI).
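Cultured in 96-well plates, cells were exposed to test compound for 48 hours across five concentrations. At the GI50, growth is halved. TGI: total growth inhibition.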 *1 amine or outer side, *2 acyl side, *3 side chain or, on linkers, in order; H or OH if unused. Where a SMILES comes first, the peptide text is derived from it. [ ]: non-standard residue; d: D form. The star is where a group is joined. X11 = C/C=C/CC(C)C(O)[C@H](N[*:1])C(=O)[*:2]; Decanoyl = CCCCCCCCCC(=O)*; Leu(ol) = CC(C)C[C@H](N)CO; Iva = CC[C@](C)(N)C(=O)O; Aib = CC(C)(N)C(=O)O

What was measured:
Assay in all cases: NCI-60 cell line screen, 48 h
[1] = test system: SF-539 CNS
[2] = test system: LOX IMVI melanoma
[3] = test system: NCI-H226 lung
[4] = test system: OVCAR-3 ovarian
[5] = test system: OVCAR-4 ovarian
[6] = test system: HCT-116 colon
[7] = test system: HT29 colon
[8] = test system: A549 NSCLC
[9] = test system: NCI-H23 lung
[10] = test system: SW-620 colon
[11] = test system: SK-MEL-5 melanoma
[12] = test system: SK-MEL-28 melanoma
[13] = test system: MOLT-4 leukemia
[14] = test system: ACHN renal
[15] = test system: RPMI-8226 leukemia
[16] = test system: COLO 205 colon
[17] = test system: BT-549 breast
[18] = test system: MCF7 breast
[19] = test system: HL-60(TB) leukemia
[20] = test system: K-562 leukemia
[21] = test system: SNB-75 CNS
[22] = test system: OVCAR-8 ovarian
[23] = test system: CAKI-1 renal
[24] = test system: UACC-62 melanoma
[25] = test system: UACC-257 melanoma
[26] = test system: HCC-2998 colon
[27] = test system: SF-295 CNS
[28] = test system: KM12 colon
[29] = test system: TK-10 renal

**Q.** How did the GI50 [1] turn out when C/C=C/CC(C)C(O)[C@H](NC(=O)[C@@H]1CCCN1C(=O)[C@](C)(CC)NC(=O)CCCCCCCCC)C(=O)N[C@@](C)(CC)C(=O)N[C@@H](CCC(N)=O)C(=O)N[C@H](CCC(N)=O)C(=O)NC(C)(C)C(=O)NC(C)(C)C(=O)N[C@@H](CCC(N)=O)C(=O)N[C@H](CC(C)C)C(=O)N[C@H](CO)CC(C)C (stereo partly drawn) (Decanoyl-[Iva]P[X11][Iva]Q[dQ][Aib][Aib]Q[dL][Leu(ol)]) was run?
**A.** 1750 nM

**Q.** And the TGI [1]?
**A.** 3150 nM

**Q.** And the GI50 [2]?
**A.** 1740 nM

**Q.** And the TGI [2]?
**A.** 3260 nM

**Q.** What about the GI50 [3] of the same compound?
**A.** 1780 nM

**Q.** What about the TGI [3] of the same compound?
**A.** 3830 nM

**Q.** What about the GI50 [4] of the same compound?
**A.** 1880 nM

**Q.** And the TGI [4]?
**A.** 3440 nM

**Q.** And the GI50 [5]?
**A.** 2150 nM

**Q.** What about the TGI [5] of the same compound?
**A.** 4800 nM

**Q.** And the GI50 [6]?
**A.** 1890 nM

**Q.** And the TGI [6]?
**A.** 3570 nM

**Q.** What about the GI50 [7] of the same compound?
**A.** 1880 nM

**Q.** What about the TGI [7] of the same compound?
**A.** 3720 nM

**Q.** What about the GI50 [8] of the same compound?
**A.** 1910 nM

**Q.** What about the TGI [8] of the same compound?
**A.** 3920 nM

**Q.** And the GI50 [9]?
**A.** 1800 nM

**Q.** What about the TGI [9] of the same compound?
**A.** 3420 nM

**Q.** What about the GI50 [10] of the same compound?
**A.** 1900 nM

**Q.** What about the TGI [10] of the same compound?
**A.** 3590 nM

**Q.** What about the GI50 [11] of the same compound?
**A.** 1780 nM

**Q.** And the TGI [11]?
**A.** 3250 nM

**Q.** What about the GI50 [12] of the same compound?
**A.** 1700 nM

**Q.** And the TGI [12]?
**A.** 3090 nM

**Q.** And the GI50 [13]?
**A.** 1930 nM

**Q.** What about the TGI [13] of the same compound?
**A.** 3640 nM

**Q.** And the GI50 [14]?
**A.** 1800 nM

**Q.** What about the TGI [14] of the same compound?
**A.** 3290 nM

**Q.** What about the GI50 [15] of the same compound?
**A.** 2020 nM

**Q.** What about the TGI [15] of the same compound?
**A.** 4320 nM

**Q.** And the GI50 [16]?
**A.** 1960 nM

**Q.** And the TGI [16]?
**A.** 3810 nM

**Q.** And the GI50 [17]?
**A.** 1800 nM

**Q.** And the TGI [17]?
**A.** 3360 nM

**Q.** What about the GI50 [18] of the same compound?
**A.** 1770 nM

**Q.** What about the TGI [18] of the same compound?
**A.** 3520 nM

**Q.** What about the GI50 [19] of the same compound?
**A.** 1740 nM

**Q.** What about the TGI [19] of the same compound?
**A.** 3390 nM

**Q.** What about the GI50 [20] of the same compound?
**A.** 1950 nM

**Q.** And the TGI [20]?
**A.** 3970 nM

**Q.** And the GI50 [21]?
**A.** 1400 nM

**Q.** And the TGI [21]?
**A.** 2800 nM

**Q.** What about the GI50 [22] of the same compound?
**A.** 2040 nM

**Q.** And the TGI [22]?
**A.** 4240 nM

**Q.** And the GI50 [23]?
**A.** 1690 nM

**Q.** And the TGI [23]?
**A.** 3110 nM

**Q.** What about the GI50 [24] of the same compound?
**A.** 1660 nM

**Q.** And the TGI [24]?
**A.** 3050 nM

**Q.** And the GI50 [25]?
**A.** 1740 nM

**Q.** And the TGI [25]?
**A.** 3260 nM

**Q.** And the GI50 [26]?
**A.** 1780 nM

**Q.** What about the TGI [26] of the same compound?
**A.** 3420 nM

**Q.** And the GI50 [27]?
**A.** 1740 nM

**Q.** What about the TGI [27] of the same compound?
**A.** 3300 nM

**Q.** And the GI50 [28]?
**A.** 1870 nM

**Q.** What about the TGI [28] of the same compound?
**A.** 3570 nM

**Q.** And the GI50 [29]?
**A.** 1750 nM

**Q.** And the TGI [29]?
**A.** 3270 nM
